These are literature values, as cited in US20200188266A1, “Oral Care Compositions and Methods of Use” (priority 2017, published 2020).

For the data set the following is noted: DI water at about 35° C.

In the case of `CC(=O)c1c(O)c(C)c(O)c2c1OC1=CC(=O)C(C(C)=O)C(=O)C12C` (stereo not shown) [usnic acid], the solubility entry is “about 6.3 ppm”.
